In brackets after ≈: the same amount, converted by molar mass.
Legend:
E. faecalis = test: MIC assay, E. faecalis; assay type: cell-based
S. pneumo. = test: MIC assay, S. pneumo.; assay type: cell-based
S. aureus = test: MIC assay, S. aureus; assay type: cell-based
H. flu = test: MIC assay, H. flu; assay type: cell-based
E. coli = test: MIC assay, E. coli; assay type: cell-based

Compound	MIC E. faecalis (E. faecalis) [µg/mL]	MIC S. pneumo. (S. pneumo.) [µg/mL]	MIC S. aureus (S. aureus) [µg/mL]	MIC H. flu (H. flu) [µg/mL]	MIC E. coli (E. coli) [µg/mL]	melting point [°C]
3′-hydroxy-5′-(3-hydroxy-1-azetidinyl)benzoxazinorifamycin [Compound 1]	0.12	0.00012	0.002	0.12	4	–
CO[C@H]1/C=C/OC2(C)Oc3c(C)c(O)c4c(=O)c(c5oc6cc(N7CC8CC7CN8)cc(O)c6nc-5c4c3C2=O)NC(=O)/C(C)=C\C=C\[C@H](C)[C@H](O)[C@@H](C)[C@@H](O)[C@@H](C)[C@H](OC(C)=O)[C@@H]1C (some centres unmarked) [Compound 3]	–	–	–	–	–	> 330
CO[C@H]1/C=C/OC2(C)Oc3c(C)c(O)c4c(=O)c(c5oc6cc(N7CC8CCC7CN8)cc(O)c6nc-5c4c3C2=O)NC(=O)/C(C)=C\C=C\[C@H](C)[C@H](O)[C@@H](C)[C@@H](O)[C@@H](C)[C@H](OC(C)=O)[C@@H]1C (some centres unmarked) [Compound 4]	–	–	–	–	–	> 300
COC1C=COC2(C)Oc3c(C)c(O)c4c(=O)c(c5oc6cc(N7CC8CCC(C7)N8)cc(O)c6nc-5c4c3C2=O)NC(=O)C(C)=CC=CC(C)C(O)C(C)C(O)C(C)C(OC(C)=O)C1C (centres unmarked) [Compound 9]	1 (≈ 1.1 µM)	0.00012 (≈ 0.000132 µM)	0.008 (≈ 0.00878 µM)	2 (≈ 2.2 µM)	>8	–
COC1C=COC2(C)Oc3c(C)c(O)c4c(=O)c(c5oc6cc(N7CC8CCC(C7)N8)cc(O)c6nc-5c4c3C2=O)NC(=O)C(C)=CC=CC(C)C(O)C(C)C(O)C(C)C(O)C1C (centres unmarked) [Compound 10]	0.12 (≈ 0.138 µM)	0.001 (≈ 0.00115 µM)	0.015 (≈ 0.0173 µM)	0.25 (≈ 0.288 µM)	4 (≈ 4.6 µM)	–
